Measured values as given in US20020137152A1, “Fermentation process for epothilones” (priority 2000, published 2002).

What was measured:
[1] = test system: eukaryotic cells; details: cited from earlier work; for cytotoxic activity against eukaryotic cells: Hofle et al., 1996; for cytotoxicity relative to epothilones A and B: desoxy counterparts compared with epothilones A and B
[2] = test system: breast and colon tumor cell lines; details: Hofle et al., 1996; cited from earlier work
[3] = target: T1, EpoK (Sorangium cellulosum, UniProt Q9KIZ4); test: EpoK assay: conversion of epothilone D to epothilone B by recombinant his-tagged EpoK, LC/MS; format: biochemical; details: 30° C., 67 minutes
T1 construct: His6 (six histidine residues); made in house; host or cells: E. coli BL21(DE3) with pREP4-groELS; plasmids pKOS55-121 (N-terminal his) and pKOS55-129 (C-terminal his) in pET22b
T1 sequence (Q9KIZ4 1-419): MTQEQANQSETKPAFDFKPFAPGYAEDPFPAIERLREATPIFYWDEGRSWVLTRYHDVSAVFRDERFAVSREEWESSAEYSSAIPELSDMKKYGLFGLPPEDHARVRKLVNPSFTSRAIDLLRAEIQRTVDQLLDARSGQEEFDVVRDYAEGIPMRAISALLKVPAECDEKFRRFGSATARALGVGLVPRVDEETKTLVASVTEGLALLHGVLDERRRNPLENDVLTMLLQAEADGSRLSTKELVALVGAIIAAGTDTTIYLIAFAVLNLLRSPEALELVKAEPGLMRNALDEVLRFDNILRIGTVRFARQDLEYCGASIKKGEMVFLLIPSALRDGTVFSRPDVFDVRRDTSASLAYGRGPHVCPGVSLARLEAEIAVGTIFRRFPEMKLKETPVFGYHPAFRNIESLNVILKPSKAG
Source text: This Example describes the construction of E. coli expression vectors for heterologous expression of the Sorangium cellulosum epoK gene. The E. coli produced EpoK enzyme can be used in assays to identify inhibitors for use in the methods of the invention. The epoK gene product was expressed in E. coli as a fusion protein with a polyhistidine tag (his tag). The fusion protein was purified and used to convert epothilone D to epothilone B. This assay can be readily adapted to identify EpoK inhibitors.
Purification of EpoK was performed as follows. Plasmids pKOS55-121 and pKOS55-129 were transformed into BL21(DE3) containing the groELS expressing plasmid pREP4-groELS (Caspers et al., 1994, Cellular and Molecular Biology 40(5):635-644). The strains were inoculated into 250 mL of M9 medium supplemented with 2 mM MgSO4, 1% glucose, 20 mg thiamine, 5 mg FeCl2, 4 mg CaCl2 and 50 mg levulinic acid. The cultures were grown to an OD600 between 0.4 and 0.6, at which point IPTG was added to 1 mM, and the cultures were allowed to grow for an additional two hours. The cells were harvested and frozen at −80° C. The frozen cells were resuspended in 10 ml of buffer 1 (5 mM imidizole, 500 mM NaCl, and 45 mM Tris pH 7.6) and were lysed by sonicating three times for 15 seconds each on setting 8. The cellular debris was pelleted by centrifugation in an SS-34 rotor at 16,000 rpm for 30 minutes. The supernatant was removed and centrifuged again at 16,000 rpm for 30 minutes. The supernatant was loaded onto a 5 mL nickel column (Novagen), after which the column was washed with 50 mL of buffer 1 (Novagen). EpoK was eluted with a gradient from 5 mM to 1M imidizole. Fractions containing EpoK were pooled and dialyzed twice against 1 L of dialysis buffer (45 mM Tris pH7.6, 0.2 mM DTT, 0.1 mM EDTA, and 20% glycerol). Aliquots were frozen in liquid nitrogen and stored at −80° C. The protein preparations were greater than 90% pure.
The EpoK assay was performed as follows. Briefly, reactions consisted of 50 mM Tris (pH7.5), 21 µM spinach ferredoxin, 0.132 units of spinach ferredoxin: NADP^+oxidoreductase, 0.8 units of glucose-6-phosphate dehydrogenase, 1.4 mM NADP, and 7.1 mM glucose-6-phosphate, 100 μM or 200 ,μM epothilone D (a generous gift of S. Danishefsky), and 1.7 ,μM amino terminal his tagged EpoK or 1.6 μM carboxy terminal his-tagged EpoK in a 100 μL volume. The reactions were incubated at 30° C. for 67 minutes and stopped by heating at 90° C. for 2 minutes. The insoluble material was removed by centrifugation, and 50 μL of the supernatant were analyzed by LC/MS. […] In the presence of 200 μM, conversion was 44% and 21%, respectively.

[4] = Chou et al., 1998; cited from earlier work
[5] = Harris et al., 1999; cited from earlier work
[6] = test system: Sorangium cellulosum strain So ce 90; test: Effect of metyrapone on growth of So ce 90 (FIG. 2); format: cell-based; details: metyrapone at 5 mM and 10 mM
Procedure: To prepare a seed culture, transfer cells from the DSM 6773 ampoule into a 250 mL baffled Erleneyer flask with 38 mm silicone foam closures containing 50 mL of sterile soybean meal. Soybean meal contains potato starch (Product No. S-2004, Sigma), 8 g/L; defatted soybean meal (Type 4890, Archer Daniels Midland), 2 g/L; yeast extract (Product No. BP 1422-500, Fisher Biotech), 2g/L; Iron (III) sodium salt EDTA (Product No. EDFS, Sigma), 0.008 g/L; MgSO4.7H20 (Product No. M-5921, Sigma), 1 g/L; CaCl2.2H20 (Product No. C-3991, Sigma), 1 g/L; glucose (Product No. G-5400, Sigma), 2g/L; HEPES buffer (Product No. H-3375, Sigma), 11.5 g/L. Use deionized water, and adjust pH to 7.4 with 10% KOH. Sterilize the flasks by autoclaving at 121° C. for at least 30 minutes. After autoclaving, add 2-3 drops of antifoam B to prevent foaming. Incubate the culture at 32° C. in a 250 RPM shaker for 4 days. After 4 days, the culture should appear an orange color. […]
To extract epothilone C and/or D, transfer the culture into a 50 mL centrifuge tube (Product no. 21008-178, VWR Scientific Products). […] Quantitation of epothilones C and D was performed by HPLC analysis with UV-DAD detection at 250 nm. […] Under these conditions, epothilone C was detected at 10.3 minutes and epothilone D was detected at 13.0 minutes. […]

[7] = test system: Sorangium cellulosum strain So ce 90; test: Production of epothilones A, B, C and D by So ce 90 fermented in the presence of a P450 inhibitor, HPLC quantitation; format: cell-based; details: 10 mM metyrapone in production medium, 7 days
Procedure: To prepare a seed culture, transfer cells from the DSM 6773 ampoule into a 250 mL baffled Erleneyer flask with 38 mm silicone foam closures containing 50 mL of sterile soybean meal. Soybean meal contains potato starch (Product No. S-2004, Sigma), 8 g/L; defatted soybean meal (Type 4890, Archer Daniels Midland), 2 g/L; yeast extract (Product No. BP 1422-500, Fisher Biotech), 2g/L; Iron (III) sodium salt EDTA (Product No. EDFS, Sigma), 0.008 g/L; MgSO4.7H20 (Product No. M-5921, Sigma), 1 g/L; CaCl2.2H20 (Product No. C-3991, Sigma), 1 g/L; glucose (Product No. G-5400, Sigma), 2g/L; HEPES buffer (Product No. H-3375, Sigma), 11.5 g/L. Use deionized water, and adjust pH to 7.4 with 10% KOH. Sterilize the flasks by autoclaving at 121° C. for at least 30 minutes. After autoclaving, add 2-3 drops of antifoam B to prevent foaming. Incubate the culture at 32° C. in a 250 RPM shaker for 4 days. After 4 days, the culture should appear an orange color. Production cultures were prepared by sterilizing 50 mL of sterile soybean meal medium and 1 g of Amberlite XAD-16 absorption resin in a 250 mL baffled Erlenmeyer flask. Metyrapone (Product No. 856525, Sigma) is prepared by reconstituting to a final concentration of 2.5 M with 50:50 (v/v) DMSO:H2O. Metyrapone was added to a final concentration of 5 mM and 10 mM in each flask. 5 mL of the seed culture was inoculated to each flask and incubated at 30° C. in a shaker at 250 RPM for 7 days.
To extract epothilone C and/or D, transfer the culture into a 50 mL centrifuge tube (Product no. 21008-178, VWR Scientific Products). Decant the excess medium in the centrifuge tube without pouring off any of the resin. Wash the XAD-16 resin with 25 mL of H2O and allow the XAD-16 resin to settle by gravity in the tube. Carefully decant the H2O, and add 20 mL of 100% methanol to the tube. Place the centrifuge tube on a shaker at 175 RPM for 20-30 minutes to extract the epothilone products from the resin. Allow the XAD-16 pellets to settle, and transfer 2 mL using a pipette to a HPLC tube (Product nos. C4010-13, C4010-60A, National Scientific Company). Quantitation of epothilones C and D was performed by HPLC analysis with UV-DAD detection at 250 nm. 50 uL of the methanol extract was injected across a 4.6×10 mm guard column (Inertsil, C18 OD 53, 5um) and a 4.6 x 150 mm […] (Inertisil, C18 OD 53, 5 um). The assay method was isocratic, eluting with 60% acetonitrile and 40% water for 18 minutes at a flow rate of 1 ml/min. Under these conditions, epothilone C was detected at 10.3 minutes and epothilone D was detected at 13.0 minutes. The results showing the highest production of epothilones C and D, and the lowest production of epothilones A and B, in the presence of metyrapone and various other inhibitors is shown in FIG. 1. […]

Which “cytotoxic activity against eukaryotic cells” value [1] does the source give for `C/C(=C\c1csc(C)n1)[C@@H]1C[C@@H]2O[C@@H]2CCC[C@H](C)[C@H](O)[C@@H](C)C(=O)C(C)(C)[C@@H](O)CC(=O)O1` [epothilone A] here?
The value was “broad cytotoxic activity”.

And the “activity against breast and colon tumor cell lines” value [2]?
The value was “noticeable activity and selectivity”.

For `C/C(=C\c1csc(C)n1)[C@@H]1C[C@@H]2O[C@]2(C)CCC[C@H](C)[C@H](O)[C@@H](C)C(=O)C(C)(C)[C@@H](O)CC(=O)O1` [epothilone B], which “cytotoxic activity against eukaryotic cells” value [1] is on record?
The value was “broad cytotoxic activity”.

And the “activity against breast and colon tumor cell lines” value [2]?
The value was “noticeable activity and selectivity”.

With `C/C(=C\c1csc(C)n1)[C@@H]1C/C=C\CCC[C@H](C)[C@H](O)[C@@H](C)C(=O)C(C)(C)[C@@H](O)CC(=O)O1` [epothilone C] as the compound, how does the “cytotoxicity relative to epothilones A and B” value [1] read?
The value was “less cytotoxic”.

For `C/C1=C/C[C@@H](/C(C)=C/c2csc(C)n2)OC(=O)C[C@H](O)C(C)(C)C(=O)[C@H](C)[C@@H](O)[C@@H](C)CCC1` [epothilone D], which “conversion of epothilone D to epothilone B” value (shortened to “conversion of epothilone D”) ([3]; 100 μM epothilone D, 1.6 μM carboxy terminal his-tagged EpoK) is on record?
Its value is 58%.

What about the “conversion of epothilone D” value ([3]; 100 μM epothilone D, 1.7 μM amino terminal his tagged EpoK) of the same compound?
Its value is 82%.

And the “conversion of epothilone D” value ([3]; 200 μM epothilone D, 1.6 μM carboxy terminal his-tagged EpoK)?
The value was 21%.

What about the “conversion of epothilone D” value ([3]; 200 μM epothilone D, 1.7 μM amino terminal his tagged EpoK) of the same compound?
The value was 44%.

And the “cytotoxicity relative to epothilones A and B” value [1]?
Its value is “less cytotoxic”.

And the “toxicity among naturally occurring epothilones studied” value [4]?
Its value is “lowest toxicity”.

What about the “efficacy among naturally occurring epothilones studied” value [5] of the same compound?
The value was “greatest efficacy”.

With `CC(C)(C(=O)c1cccnc1)c1cccnc1` [metyrapone, 2-methyl-1,2-di-3-pyridyl-1-propanone] as the compound, how does the “effect on growth of So ce 90” value [6] read?
The value was “does not detrimentally inhibit the growth”.

And the “epothilone D produced by So ce 90” value ([7]; without inhibitor 0.5 mg/L)?
Its value is 0.1 mg/L.

What about the “epothilone C produced by So ce 90” value ([7]; without inhibitor 1.0 mg/L) of the same compound?
The value was 0.5 mg/L.

What about the “epothilone B produced by So ce 90” value ([7]; without inhibitor 1.7 mg/L) of the same compound?
The value was 0.3 mg/L.

And the “epothilone A produced by So ce 90” value ([7]; without inhibitor 3.6 mg/L)?
Its value is 0.9 mg/L.
